Source: patent US20160331742A1, “TREATMENT OF CROHN'S DISEASE USING LOW DOSES OF LAQUINIMOD” (Teva Pharmaceutical Industries, Ltd., priority 2014, published 2016)

Legend:
[1] = tested on: subjects suffering from active moderate to severe Crohn's disease; assay: Phase III randomized, double-blind, placebo-controlled 52-week maintenance of remission study of laquinimod in Crohn's disease patients; type: in vivo, human; conditions: 0.25 mg/day oral vs 0.5 mg/day, Example 2
Procedure: A phase III, randomized, double-blind, placebo-controlled 52-week maintenance of remission study of laquinimod is conducted in Crohn's disease patients.
One or more capsules containing laquinimod 0.25 mg, laquinimod 0.5 mg, or matching placebo are administered orally once daily (QD)
Patients with a Response at Week 12 in any of the induction studies, TV5500-IMM-30009, TV5600-IMM-30012, or TV5500-IMM-10013, are re-randomized into this placebo-controlled maintenance study. Response at Week 12 in those induction studies is defined as a Crohn's Disease Activity Index (CDAI) reduction of at least 10 points from Baseline at Week 12. No new patients are included in this maintenance study. […]
Ileonclonoscopy is performed at Baseline Week 12b Visit from the induction study) and Week 52 to directly assess endoscopic disease and mucosal healing. The timing of the ileocolonoscopy is arranged so that it takes place after the final day on which data is recorded for the Week 52 CDAI assessment, and allows time for adequate ileocolonoscopy preparation; consequently, the Week 52 ileocolcnoscopy is performed separately from but within 7 days of) the other Week 52 assessments each endosoopy is recorded, read, and scored by a central reader for an endoscopic score of cDEIS, and mucosal healing determination, […]

[2] = tested on: subjects suffering from active moderate to severe Crohn's disease; assay: Phase III randomized, double-blind, placebo-controlled study of oral laquinimod in active moderate to severe Crohn's disease (12 weeks); type: in vivo, human; conditions: 0.25 mg/day oral vs 0.5 mg/day, Example 1
Procedure: A phase III, multicenter, randomized, double-blind, placebo-controlled study is conducted to evaluate Laquinimod in active moderate to severe Crohn's disease. There are ˜540 Crohn's disease patients enrolled, divided into 3 arms of ˜180 patients, randomized in a […] ratio (˜180 subjects on laquinimod 0.25 mg, ˜180 on laquinimod 0.5 mg, and ˜180 on placebo). One or more capsules containing laquinimod 0.25 mg, laquinimod 0.5 mg, or matching placebo are administered orally once daily; A loading dose regimen of double the maintenance/intended dose is given during the first two days of study drug treatment. Thereafter, starting on day 3, the daily maintenance/intended dose is administered. Patients with moderate to severe Crohn's disease (CD), as determined by a Crohn's Disease Activity Index (CDM) score of 220-450 (inclusive) and evidence of active endoscopic inflammatory disease, based on Crohn's Disease Endoscopic index of Severity (CDEIS) score >6 points. […] The timing of the ileocelonosoopy is arranged so that it takes place after the last day on which data are recorded for the CDAI assessment. […] Each endoscopy is recorded, and then read and scored by a central reader for endoscopic scores of CDEIS and SES-CD. […]

[3] = cited from earlier work
[4] = tested on: subjects suffering from active moderate to severe Crohn's disease; assay: Phase III open-label 64-week induction and maintenance study of laquinimod in Crohn's disease patients; type: in vivo, human; conditions: 0.25 mg/day oral vs 0.5 mg/day, Example 3
Procedure: A phase III, randomized, open-label 64-week induction and maintenance study of laquinimod is conducted in Crohn's disease patients,
One capsule containing laquinimod 0.25 mg or laquinimod 0.5 mg is administered orally once daily at the same hour:
Response at Week 12 in those induction studies is defined as a Crohn's Disease Activity Index (COAT) reduction, of at least 70 points from Baseline. It is anticipated that many non-responders received placebo in the induction studies, so that TV5600-IMM-30011 is their first opportunity to be exposed to any dose of laquinimod. No new patients are included in this study.
Treatment duration is up to 64 weeks. The initial phase of the treatment duration is 12 weeks. Scheduled in-clinic visits are conducted at Baseline (Week 0, Visit 1) and at Weeks 2, 4, 8, and 12. The Baseline visit (Week 0, Visit 1) for this study is the same as the Week 12 visit in the relevant induction study (i.e., not an additional visit). Some additional procedures may be performed on this day, as a part of the TV5600-114M-30011 protocol but not the induction study protocol. Unscheduled visits for safety or for any other reason are conducted at any time during the study. At Week 12 (and at subsequent visits), patients undergo a clinical assessment and are offered either release from the study or continuation of maintenance therapy at the existing dose. […]

With `CCN(C(=O)c1c(O)c2c(Cl)cccc2n(C)c1=O)c1ccccc1` [laquinimod] the “adverse effects of 0.25 mg/day as compared to 0.5 mg/day” value [1] was “maintaining or reducing adverse effects”, the “efficacy of 0.25 mg/day as compared to 0.5 mg/day (symptoms, clinical response, remission, CDAI, CDEIS, mucosal healing, CRP, fecal calprotectin, IBDQ, WPAI:CD, EQ-5D)” value [1] was “at least as effective, or more effective” and the “adverse effects of 0.25 mg/day as compared to 0.5 mg/day” value [2] was “maintaining or reducing adverse effects”. For the same compound, the “efficacy of 0.25 mg/day as compared to 0.5 mg/day (symptoms, clinical response, remission, CDAI, CDEIS, mucosal healing, CRP, fecal calprotectin, IBDQ, WPAI:CD, EQ-5D)” value [2] was “at least as effective, or more effective”, the oral bioavailability [3] was “high” and the “adverse effects of 0.25 mg/day as compared to 0.5 mg/day” value [4] was “maintaining or reducing adverse effects”. For the same compound, the “efficacy of 0.25 mg/day as compared to 0.5 mg/day (symptoms, clinical response, remission, CDAI, CRP, fecal calprotectin, IBDQ, WPAI:CD, EQ-5D)” value [4] was “at least as effective, or mare effective”.
